# Results as given in US11414377B2, “Modulator of metabotropic and ionotropic transmembrane receptors and use thereof” (IBD THERAPEUTICS LLC, priority 2018, dated 2022).
# Experiments:
# male balb/c mice = assay: Open field test, functional state of the central nervous system of mice; type: in vivo; details: for The number of acts of defecation within 15 minutes: control 0.2 ± 0.1; for The number of washes within 15 minutes (grooming): control 8.0 ± 1.5; for Number of standing up on hind legs in 15 minutes (vertical activity): control 67.1 ± 3.5; for Number of squares crossed within 15 minutes (horizontal activity): control 443.3 ± 15.6; for General physical activity for 15 minutes: control 518.4 ± 15.3
# Procedure: For the final confirmation of the safety of Compound I at the oral administration, the study of the effect of Compound I on the functional state of the central nervous system of mice in the open field test was carried out. “Open field” test consists in the evaluation of motor and research activities, orientation reaction and emotional reactivity in the registration of spontaneous behaviour of animals. The study was carried out according to the standard technique (Buresh Y, Bureshova O., Joseph P. Houston. Methods and main experiments to study the brain and behavior (Moscow, 1991, pp. 119-122).
# The study was carried out on male balb/c mice, the individual weight of which deviates from the mean value within the sex of no more than ±10%.
# Compound I was administered once, intragastrically. The evaluation of the effect on the central nervous system was carried out 2 hours after the administration of Compound I in the study of the approximate research behaviour of mice in the “open field”. The experimental “open field” facility was a chamber of 100×100×60 cm in size, with a square floor and white walls. The floor of the chamber is divided into 16 squares, in each square there is the round orifice having 6 cm in diameter. The chamber is illuminated by the incandescent electric lamp having a power of 100 watts, located at a height of 1 m from the floor of the chamber. The animal was placed in one of the corners of the chamber and for 15 minutes the number of horizontal squares crossed by it (horizontal activity), getting up on its hind legs (vertical activity), washing (grooming), and defecation by the number of fecal balls were recorded. Then the total motor activity was calculated, the activity was calculated as the sum of the crossed horizontal squares, standing on the hind legs and washing.
# The obtained data were checked using the Grubb's test for the presence of the largest or smallest abnormal observation (ejection) in the sample. Values determined “to be eliminated” in this test were not used for further assay. For all data, descriptive statistics was used: a mean value (M) and standard error of the mean value (m) were counted up. The normality of distribution of the values obtained in the course of the experiment was checked with the aid of the Kolmogorov-Smirnov test. In the case of normal distribution, Student's t-test (t-test) was used to evaluate the inter-group distinctions. In the case of the distribution that is other than the normal one the Kruskalll-Wallis test with Dann's post hoc test was used for the comparison of several groups. Distinctions were determined at 5% at a level of confidence.
# TRPM8 ion channel = molecular target: T1, TRPM8 ion channel (Homo sapiens, UniProt Q7Z2W7); assay: Effect on activity of TRPM8 ion channel (Fluo-4 AM calcium); type: cell-based; details: TRPM8 expressing HEK293 cells; Icilin 100 nM; intracellular calcium; read-out: IC50, blocker of TRPM8 ion channel
# T1 construct: expressed in transfected cells; host or cells: HEK293 cells
# Procedure: Compound I was dissolved in DMSO to a concentration of 100 mM; then the stock solution was diluted with DMSO to prepare a test solution with the concentration of substance equal to 50 μM. TRPM8 expressing HEK293 cells were used in the experiment. At the day of the experiment, the cells were incubated with a 4 μM of a solution of fluorescent indicator Fluo-4 AM. The cells after the preincubation with Icilin (100 nM), the known agonist of TRPM8 ion channel, were incubated with the test compound. The activity of receptors was determined by the intracellular calcium concentration using fluorescence spectroscopy (Behrendt, H. J. et al. (2004), Br. J. Pharmacol., 141: 737-745. FINAL).
# male and female mice = assay: Acute toxicity at single administration, mice; type: in vivo; details: for Body weight gain / Death of animals: male and female; for Death of animals: 14 days observation
# Procedure: The acute toxicity study was performed on 24 male and 24 female rats, and also on 24 male and 24 female mice. Before the administration of the Compound I, the body weight of the animals was recorded, after 1 hour of the administration, the state of the experimental animals was observed. Then, the body weights of rats and mice were recorded daily for 14 days after the administration of the substance, and the examination was carried out to detect the cases of death and abnormality in the state of the animals.
# Compound I was administered to rats and mice intragastrically at a dose of 5000 mg/kg, intraperitoneally—at a dose of 2000 mg/kg. Control groups (female and male objects) were received a solvent (0.1% Tween-80 solution in water).
# rats = assay: Stress-induced defecation model in rats; type: in vivo; details: 40 minutes restraint, control 2.65 ± 0.35, intact 0.24 ± 0.05
# Procedure: The study of the activity of Compound I in the stress-induced defecation model was carried out by a standard procedure (Taguchi R., Shikata K., Furuya Y, Hirakawa T., Ino M., Shin K., Shibata H. Selective corticotropin-releasing factor 1 receptor antagonist E2508 reduces restraint stress-induced defecation and visceral pain in rat models//Psychoneuroendocrinology. 2017. P. 110-115).
# Rats were adapted to a room in which the experiment was conducted for 24 hours. The study was carried out on satisfied rats. Compound I was administered once, intragastrically. After 1 hour, the rat was placed in the cloth so that the front paws were pressed to the body. In such a form, the rat was placed into the individual cage on the gating and was left for 40 minutes. Summarily the whole of excrement released during the observation period of 40 minutes then was weighed.
# For all data, descriptive statistics is applied: the arithmetic mean (M) and the standard error of the mean (m) are counted up. The normality of distribution of the values obtained in the course of the experiment was checked with the aid of the Shapiro-Wilk test. In the case of normal distribution, 1-way ANOVA (with […] post hoc test) was used to evaluate the inter-group distinctions. In the case of the distribution that is other than normal one, the […] was used for the comparison of several groups.
# [1] = 0.75 mg/kg intragastrically 2 hours prior
# [2] = 1.5 mg/kg intragastrically 2 hours prior
# [3] = 2.5 mg/kg intragastrically 2 hours prior
# [4] = 5 mg/kg intragastrically 2 hours prior
# [5] = 10 mg/kg intragastrically 2 hours prior
# [6] = 20 mg/kg intragastrically 2 hours prior
# [7] = 30 mg/kg intragastrically 2 hours prior
# T1 sequence (Q7Z2W7 whole entry): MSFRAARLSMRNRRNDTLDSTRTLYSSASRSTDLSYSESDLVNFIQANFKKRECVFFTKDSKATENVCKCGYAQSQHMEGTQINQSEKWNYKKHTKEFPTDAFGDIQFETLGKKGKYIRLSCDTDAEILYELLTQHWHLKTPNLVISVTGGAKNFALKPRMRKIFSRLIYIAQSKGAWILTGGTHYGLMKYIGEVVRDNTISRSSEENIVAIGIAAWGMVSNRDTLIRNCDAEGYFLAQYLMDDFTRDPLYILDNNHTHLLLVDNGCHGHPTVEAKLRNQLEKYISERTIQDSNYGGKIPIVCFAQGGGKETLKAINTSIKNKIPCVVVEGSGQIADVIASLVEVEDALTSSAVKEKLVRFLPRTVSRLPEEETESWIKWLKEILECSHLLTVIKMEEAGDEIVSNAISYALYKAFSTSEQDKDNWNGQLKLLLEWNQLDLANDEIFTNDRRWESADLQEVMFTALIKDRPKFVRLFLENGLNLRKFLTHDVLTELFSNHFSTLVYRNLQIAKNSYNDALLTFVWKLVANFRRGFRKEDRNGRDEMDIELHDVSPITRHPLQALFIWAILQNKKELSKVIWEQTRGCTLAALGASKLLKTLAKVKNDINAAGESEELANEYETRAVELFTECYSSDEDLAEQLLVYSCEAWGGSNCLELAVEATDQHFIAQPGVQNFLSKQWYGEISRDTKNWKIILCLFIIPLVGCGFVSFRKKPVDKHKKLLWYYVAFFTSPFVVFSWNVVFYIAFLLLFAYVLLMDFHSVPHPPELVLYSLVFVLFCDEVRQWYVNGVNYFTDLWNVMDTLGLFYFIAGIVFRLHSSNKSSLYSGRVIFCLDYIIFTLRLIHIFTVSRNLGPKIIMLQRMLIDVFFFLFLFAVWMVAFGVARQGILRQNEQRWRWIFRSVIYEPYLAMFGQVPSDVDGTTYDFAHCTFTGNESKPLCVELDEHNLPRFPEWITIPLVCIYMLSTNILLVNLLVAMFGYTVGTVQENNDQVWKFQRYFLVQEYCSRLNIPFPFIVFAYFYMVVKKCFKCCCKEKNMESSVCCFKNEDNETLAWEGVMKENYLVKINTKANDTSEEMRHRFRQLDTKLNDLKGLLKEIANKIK
compound,measurement,setting,value
"O=C(Cc1ccc(O)cc1)N[C@@H](Cc1ccccc1)C(=O)NCCc1ccccc1 [Compound I, 2-phenylethylamide N-(p-hydroxyphenylacetyl)phenylalanine]",The number of acts of defecation within 15 minutes,male balb/c mice; [1],0.2 ± 0.1
same,The number of washes within 15 minutes (grooming),male balb/c mice; [1],7.2 ± 1.4
same,Number of standing up on hind legs in 15 minutes (vertical activity),male balb/c mice; [1],69.9 ± 4.3
same,Number of squares crossed within 15 minutes (horizontal activity),male balb/c mice; [1],468.5 ± 13.0
same,General physical activity for 15 minutes,male balb/c mice; [1],545.6 ± 16.5
same,The number of acts of defecation within 15 minutes,male balb/c mice; [2],1.6 ± 0.6
same,The number of washes within 15 minutes (grooming),male balb/c mice; [2],8.5 ± 1.6
same,Number of standing up on hind legs in 15 minutes (vertical activity),male balb/c mice; [2],63.0 ± 4.2
same,Number of squares crossed within 15 minutes (horizontal activity),male balb/c mice; [2],414.2 ± 24.1
same,General physical activity for 15 minutes,male balb/c mice; [2],485.7 ± 24.8
same,The number of acts of defecation within 15 minutes,male balb/c mice; [3],0.0 ± 0.0
same,The number of washes within 15 minutes (grooming),male balb/c mice; [3],8.6 ± 1.6
same,Number of standing up on hind legs in 15 minutes (vertical activity),male balb/c mice; [3],72.8 ± 3.5
same,Number of squares crossed within 15 minutes (horizontal activity),male balb/c mice; [3],459.5 ± 19.0
same,General physical activity for 15 minutes,male balb/c mice; [3],540.9 ± 18.0
same,The number of acts of defecation within 15 minutes,male balb/c mice; [4],1.5 ± 0.2
same,The number of washes within 15 minutes (grooming),male balb/c mice; [4],2.3 ± 1.0
same,Number of standing up on hind legs in 15 minutes (vertical activity),male balb/c mice; [4],71.7 ± 4.4
same,Number of squares crossed within 15 minutes (horizontal activity),male balb/c mice; [4],480.6 ± 22.1
same,General physical activity for 15 minutes,male balb/c mice; [4],554.6 ± 23.9
same,The number of acts of defecation within 15 minutes,male balb/c mice; [5],0.0 ± 0.0
same,The number of washes within 15 minutes (grooming),male balb/c mice; [5],6.8 ± 1.3
same,Number of standing up on hind legs in 15 minutes (vertical activity),male balb/c mice; [5],66.1 ± 3.3
same,Number of squares crossed within 15 minutes (horizontal activity),male balb/c mice; [5],449.2 ± 15.6
same,General physical activity for 15 minutes,male balb/c mice; [5],522.1 ± 16.5
same,The number of acts of defecation within 15 minutes,male balb/c mice; [6],0.0 ± 0.0
same,The number of washes within 15 minutes (grooming),male balb/c mice; [6],6.2 ± 1.3
same,Number of standing up on hind legs in 15 minutes (vertical activity),male balb/c mice; [6],64.9 ± 4.0
same,Number of squares crossed within 15 minutes (horizontal activity),male balb/c mice; [6],479.4 ± 29.3
same,General physical activity for 15 minutes,male balb/c mice; [6],545.5 ± 30.4
same,The number of acts of defecation within 15 minutes,male balb/c mice; [7],0.0 ± 0.0
same,The number of washes within 15 minutes (grooming),male balb/c mice; [7],5.9 ± 1.4
same,Number of standing up on hind legs in 15 minutes (vertical activity),male balb/c mice; [7],69.0 ± 3.8
same,Number of squares crossed within 15 minutes (horizontal activity),male balb/c mice; [7],448.4 ± 16.4
same,General physical activity for 15 minutes,male balb/c mice; [7],523.3 ± 16.6
same,Toxic influence on approximate-research behaviour in the open field test,"male balb/c mice; intragastric administration, 0.75-30 mg/kg, no statistically significant differences to control",did not have the toxic influence
same,IC50,TRPM8 ion channel,62 µM
same,"Differences in the spontaneous behaviour, responses to the caused reactions","male and female mice; intragastrically 5000 mg/kg, intraperitoneally 2000 mg/kg",not observed
same,Body weight gain,male and female mice; intragastrically 5000 mg/kg,lag in body weight gain
same,Death of animals,male and female mice; intragastrically 5000 mg/kg,did not cause death of animals
same,Body weight gain,male and female mice; intraperitoneally 2000 mg/kg,lag in body weight gain
same,Death of animals,male and female mice; intraperitoneally 2000 mg/kg,did not cause death of animals
same,Weight of excrement,rats; 0.3 mg/kg once intragastrically,2.35 ± 0.35 g
same,Weight of excrement,rats; 1 mg/kg once intragastrically,1.43 ± 0.12 g
same,Weight of excrement,rats; 3 mg/kg once intragastrically,1.00 ± 0.06& g
